# Data as given in patent US20260365656A1, “PYRAZOLE DERIVATIVE, AND PHARMACEUTICALLY ACCEPTABLE SALT, STEREOISOMER, PHARMACEUTICAL COMPOSITION AND USE THEREOF” (STARG (WUHAN) PHARMACEUTICAL TECHNOLOGY CO., LTD, priority 2023, published 2026).
# Where a name gives a salt, the structure may show the parent alone.
# Legend:
# CDK1/cyclin B1 = target: T1, CDK1/cyclin B1 (Homo sapiens, UniProt P06493); assay: In Vitro CDK1/Cyclin B1 Enzyme Activity Assay (TR-FRET); assay type: biochemical; conditions: in words
# T1 construct: purchased Carna Biosciences
# Description: Experimental Example 2: In Vitro CDK1/Cyclin B1 Enzyme Activity Assay
# CDK1/cyclin B1 was purchased from Carna Biosciences. Ulight-4E-BP1 peptide, Eu-anti-phospho-tyrosine antibody, and 1× detection buffer were purchased from PerkinElmer. High-purity ATP was purchased from Promega. EDTA was purchased from Sigma. Nivo multimode plate reader (PerkinElmer) was used.
# Preparation of Kinase Buffer Solution: The kinase buffer solution consisted 50 mM HEPES, 1 mM EDTA, 10 mM MgCl2, and 0.01% Brij-35, with pH of 7.4. 2.38 g HEPES, 58 mg EDTA, 406 mg MgCl2, and 20 mg Brij-35 were added to 200 mL buffer, and the pH was adjusted to 7.4.
# The stop solution was prepared by mixing 100 μL of 1 M EDTA stock solution with 0.625 μL of 1× detection buffer solution and 1725 μL of distilled water.
# The enzyme, Ulight-4E-BP1 peptide, ATP, and the inhibitor were diluted using the kinase buffer solution.
# The Eu-anti-phospho-tyrosine antibody was diluted to a concentration of 8 nM/L using the detection buffer solution.
# The test compound was serially diluted 5-fold using a multichannel pipette to the 8th concentration, i.e., from 4 μM to 0.0512 nM. The final concentration of DMSO was 4%, and the experiment was set up with duplicate wells. 2.5 μL of each gradient concentration of the inhibitor, 5 μL of CDK1/cyclin B1 enzyme (0.5 ng), and 2.5 μL of a mixture of substrate and ATP (4 mM ATP, 200 nM Ulight-4E-BP1 peptide) were added to a microplate, resulting in a final concentration gradient of the compound from 1 μM to 0.0128 nM, with final ATP and substrate concentrations of 1 mM and 50 nM, respectively. The reaction system was incubated at 25 °C for 60 minutes. After the reaction, 5 μL of the stop solution was added to each well, and further reacted at 25 °C for 5 minutes to terminate the reaction. Then 5 μL of Eu-anti-phospho-tyrosine antibody dilution was added to each well, and the mixture was incubated at 25 °C for 60 minutes. Data were collected using the PerkinElmer Nivo multimode plate reader in TR-FRET mode (excitation wavelength: 320 nm; emission wavelengths: 615 nm and 665 nm).
# The raw data were converted to inhibition rates using the equation (Sample−Min)/(Max−Min)×100%. The IC50 value was obtained by fitting the data to a four-parameter curve (using log(inhibitor) vs. response—Variable slope model in GraphPad Prism). Table 1 provides the enzyme inhibitory activity of the compounds of the present application against CDK1/cyclin B1.
# [1] = Pharmacokinetic Study of Test Compounds Administered Orally and Intravenously in Mice; assay type: in vivo, mouse (ICR, male); conditions: ICR mice
# Text: Experimental Example 5: Pharmacokinetic Study of Test Compounds Administered Orally and Intravenously in Mice
# This study used ICR male mice as test animals. The plasma concentrations of the test compounds and the reference compound in mice were quantitatively determined at different time points using the LC-MS/MS method following intravenous injection or oral administration to evaluate the pharmacokinetic characteristics of the test compounds in mice.
# ICR mice (male, 20-30 g, 6-8 weeks old, Beijing Charles River).
# A clear solution of the test compound was administered to ICR mice (fasted overnight or fed) via tail vein injection or oral gavage. For intravenous injection, blood samples (50 μL) were collected via cheek puncture at 0 h (pre-dose) and at 0.083, 0.25, 0.5, 1, 2, 4, 6, 8, and 24 h post-dose into anticoagulant tubes containing sodium heparin. The mixtures were thoroughly vortexed at 4 °C and centrifuged at 6000 rpm for 3 minutes. For oral gavage, blood samples were collected via cheek puncture at 0 h (pre-dose) and at 0.083, 0.25, 1, 2, 4, 6, 8, and 24 h post-dose into anticoagulant tubes containing sodium heparin. The mixtures were vortexed thoroughly, and centrifuged at 6000 rpm for 3 minutes. Plasma drug concentrations were determined using the LC-MS/MS method. Pharmacokinetic parameters were calculated using Phoenix WinNonlin 8.2.0 pharmacokinetic software with a non-compartmental model and linear-logarithmic trapezoidal rule.
# T1 sequence (P06493 whole entry): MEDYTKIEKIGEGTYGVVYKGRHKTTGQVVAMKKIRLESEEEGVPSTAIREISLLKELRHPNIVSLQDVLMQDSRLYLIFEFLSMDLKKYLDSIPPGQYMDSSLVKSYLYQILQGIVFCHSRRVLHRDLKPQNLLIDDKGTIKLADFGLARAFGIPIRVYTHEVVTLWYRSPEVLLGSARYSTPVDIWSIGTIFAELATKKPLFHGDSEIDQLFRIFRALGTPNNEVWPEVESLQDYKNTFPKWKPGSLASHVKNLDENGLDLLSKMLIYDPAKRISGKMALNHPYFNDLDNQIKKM
# T1 sequence (P14635 whole entry partner): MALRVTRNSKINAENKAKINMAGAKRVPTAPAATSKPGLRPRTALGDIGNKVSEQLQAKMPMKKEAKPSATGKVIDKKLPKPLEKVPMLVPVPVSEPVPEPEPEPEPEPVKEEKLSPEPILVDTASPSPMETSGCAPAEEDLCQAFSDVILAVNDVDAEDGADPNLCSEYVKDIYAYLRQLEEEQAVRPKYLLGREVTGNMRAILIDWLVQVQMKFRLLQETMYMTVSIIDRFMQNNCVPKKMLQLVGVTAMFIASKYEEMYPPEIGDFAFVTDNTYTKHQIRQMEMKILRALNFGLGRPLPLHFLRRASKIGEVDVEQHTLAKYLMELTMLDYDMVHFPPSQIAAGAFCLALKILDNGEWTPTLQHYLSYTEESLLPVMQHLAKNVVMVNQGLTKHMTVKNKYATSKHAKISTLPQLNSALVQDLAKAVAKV
smiles,measurement,setting,value
CONCc1nn2ccnc(Nc3cc([C@H]4CC[C@@H](OC(=O)NC(C)C)C4)[nH]n3)c2c1F [Compound 5],selectivity for CDK2 over CDK1 compared to PF-07104091,CDK1/cyclin B1,superior selectivity compared to PF-07104091
CON(C)Cc1nn2ccnc(Nc3cc([C@H]4CC[C@@H](OC(=O)NC(C)C)C4)[nH]n3)c2c1F [Compound 6],selectivity for CDK2 over CDK1 compared to PF-07104091,CDK1/cyclin B1,superior selectivity compared to PF-07104091
CONCc1nn2ccnc(Nc3cc([C@H]4CC[C@@H](OC(=O)NC(C)C)C4)[nH]n3)c2c1C [Formate salt of compound 1],selectivity for CDK2 over CDK1 compared to PF-07104091,CDK1/cyclin B1,superior selectivity compared to PF-07104091
CON(C)Cc1nn2ccnc(Nc3cc([C@H]4CC[C@@H](OC(=O)NC(C)C)C4)[nH]n3)c2c1C [Formate salt of compound 2],selectivity for CDK2 over CDK1 compared to PF-07104091,CDK1/cyclin B1,superior selectivity compared to PF-07104091
CNOCc1nn2ccnc(Nc3cc([C@H]4CC[C@@H](OC(=O)NC(C)C)C4)[nH]n3)c2c1F [Hydrochloride salt of Compound 7],selectivity for CDK2 over CDK1 compared to PF-07104091,CDK1/cyclin B1,superior selectivity compared to PF-07104091
CNOCc1nn2ccnc(Nc3cc([C@H]4CC[C@@H](OC(=O)NC(C)C)C4)[nH]n3)c2c1C [Hydrochloride salt of compound 3],selectivity for CDK2 over CDK1 compared to PF-07104091,CDK1/cyclin B1,superior selectivity compared to PF-07104091
COCc1cc(C(=O)Nc2cc([C@H]3CC[C@@H](OC(=O)NC(C)C)C3)[nH]n2)n(C)n1 [PF-07104091],Apparent volume of distribution Vdss,"[1]; intravenous, 5 mg/Kg",11.8 L/kg
same,Area under plasma concentration-time curve AUC0-last,"[1]; intravenous, 5 mg/Kg",1645 ng·h/mL
same,Clearance CL,"[1]; intravenous, 5 mg/Kg",50.3 mL/min/kg
same,Half-life T1/2,"[1]; intravenous, 5 mg/Kg",2.68 h
same,Bioavailability F,[1]; oral 30 mg/Kg vs intravenous 5 mg/Kg,76.2%
same,Area under plasma concentration-time curve AUC0-last,"[1]; oral, 30 mg/Kg",7524 ng·h/mL
same,Peak concentration Cmax,"[1]; oral, 30 mg/Kg",6317 ng/mL
same,Time to peak Tmax,"[1]; oral, 30 mg/Kg",0.25 h
